Assay results reported in patent US7989446B2, “4-amino 5-cyanopyrimidine derivatives” (Otsuka Pharmaceutical Co., Ltd., priority 2004, dated 2011).
Where a name gives a salt, the structure may show the parent alone.

Legend:
[1] = test system: Intraocular Pressure in Rabbit; experiment: Measuring test for intraocular pressure in rabbit; assay type: in vivo, Female New Zealand white rabbits; settings: mean±standard error
Protocol: (3) Measuring Test for Intraocular Pressure in Rabbit
The test compounds were dissolved in 10 mM of phosphate buffer (pH 7.5) (hereinafter, referred to as “vehicle of ophthalmic preparation”), and they were instilled in a given concentration. In addition, the compounds insoluble in that concentration was used as a suspension. Female New Zealand white rabbits (KITAYAMA LABES Co., Ltd.) whose weights were 2.0-4.0 kg were used.
The measurement of the intraocular pressure was carried out using Pneumatonometer (Model 30 Classic, Mentor company) without anesthesia. In addition, before the measurement of the intraocular pressure, the surface anesthesia with 0.4% oxybuprocaine hydrochloride (“Benoxil” 0.4% ophthalmic solution, Santen Pharmaceutical Co., Ltd.) was carried out.
The animals whose intraocular pressure was stable before instillation were selected, and these animals were divided to every 4 animal in each one group, 50 μL of eye drops including each the test compound was administered to one-sided eye and vehicle was administered to contralateral eye as the control eye. The measurement of intraocular pressure was carried out before instillation and after 0.5, 1, 2, 3, 4 and 6 hours from instillation. The effect on the intraocular pressure was shown as the difference from pre-instillation (ΔIOP, mmHg, mean±standard error). The following Tables 14 and 15 show the results of Control Compounds A and B used as 1% suspensions which are the same as in the pharmacological test (1).
The animals were pretreated as mentioned above, and among them animals whose intraocular pressure was stable before instillation were selected, and these animals were divided to every 5 to 8 animal in each one group. Every two group was used for each of the test compounds. The test compound was administered unilaterally to the eye of the test group rabbit and the intraocular pressure was measured. The vehicle was administered unilaterally to the eye of the control group rabbit and the intraocular pressure was measured. As mentioned above, the measurement of intraocular pressure was carried out before instillation and after 0.5, 1, 2, 3, 4 and 6 hours from instillation, and the effect on the intraocular pressure was shown as the difference from pre-instillation (ΔIOP, mmHg, mean±standard error).

[2] = molecular target: T1, adenosine A2a receptor (Human) (Homo sapiens, UniProt P29274); experiment: c-AMP generating action in cell expressing adenosine A2a receptor; assay type: cell-based; settings: HEK293 cell expressing human A2a; 100% = c-AMP caused by 1 μM CGS-21680; read-out: A2a Agonistic Action (EC50)
T1 construct: host or cells: HEK293
T1 sequence (P29274 whole entry): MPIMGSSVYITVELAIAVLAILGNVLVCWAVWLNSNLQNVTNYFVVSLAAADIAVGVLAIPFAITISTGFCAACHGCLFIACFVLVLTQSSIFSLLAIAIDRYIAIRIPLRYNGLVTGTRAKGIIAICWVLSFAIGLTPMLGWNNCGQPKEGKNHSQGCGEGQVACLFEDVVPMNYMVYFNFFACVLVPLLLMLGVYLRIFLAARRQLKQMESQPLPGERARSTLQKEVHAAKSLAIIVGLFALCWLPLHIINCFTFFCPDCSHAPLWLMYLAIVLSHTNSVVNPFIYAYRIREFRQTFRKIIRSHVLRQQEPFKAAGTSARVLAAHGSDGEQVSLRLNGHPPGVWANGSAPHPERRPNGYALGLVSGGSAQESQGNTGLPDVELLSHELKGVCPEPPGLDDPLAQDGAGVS
Protocol: (1) c-AMP Generating Action in Cell Expressing Adenosine A2a Receptor
The test was carried out as mentioned below with reference to the method disclosed in the reference (Klotz k. N. et al., Naunyn-Schmiedeberg's Arch. Pharmacol., (1998) 357, 1-9; Shryock J. C. et al., Molecular Pharmacology, (1998) 53, 886-893).
As to the cell, HEK293 cell expressing adenosine A2a receptor (Human) (PerkinElmer Life Sciences, Code No. RBHA2AC) was used.
As to the culture medium, Dulbecco's modified Eagles medium (DMEM) including 10% FBS (Fetal bovine serum) and 1 mM of sodium pyruvate was used.
The cell was placed on 96 well plate (1×10^5/well), and cultured overnight. After removing off the supernatant, to each well, 0.1 ml of DMEM (without FBS) containing 20 mM HEPES, 0.1 mM of IBMX (3-isobutyl-1-methylxanthine) and 2 unit/mL adenosine deaminase was added, and they were incubated at 37° C. for 30 minutes. To each well, 0.1 ml of the culture medium including the DMSO solution of the test compound in an appropriate concentration was added and they were incubated for additional 30 minutes. After removing off the supernatant, the cytolytic solution was added to quench the reaction. The amount of c-AMP in each well was measured by using the c-AMP enzyme immunoassay (EIA) system (Amersham Biosciences, Code No. RPN225).
The same assay was repeated using CGS-21680 (2-p-carboxyethyl)phenethylamino-5′-N-ethylcarboxamidoadenosine hydrochloride, (Sigma, code C141) as reference compound. The amount of resultant c-AMP in the medium, caused by 1 μM of reference compound, was defined to be 100%. A concentration of assayed compound in the medium, producing 50% c-AMP amounts, was calculated to be EC50 value.

[3] = 0.03% ophthalmic solution, rabbit, instillation, 0.5 hr after instillation, difference from pre-instillation
[4] = 0.03% ophthalmic solution, rabbit, instillation, 1 hr after instillation, difference from pre-instillation
[5] = 0.03% ophthalmic solution, rabbit, instillation, 2 hr after instillation, difference from pre-instillation
[6] = 0.03% ophthalmic solution, rabbit, instillation, 3 hr after instillation, difference from pre-instillation
[7] = 0.03% ophthalmic solution, rabbit, instillation, 4 hr after instillation, difference from pre-instillation
[8] = 0.03% ophthalmic solution, rabbit, instillation, 6 hr after instillation, difference from pre-instillation

SMILES | ΔIOP (mmHg) [1, 3] [mmHg] | ΔIOP (mmHg) [1, 4] [mmHg] | ΔIOP (mmHg) [1, 5] [mmHg] | ΔIOP (mmHg) [1, 6] [mmHg] | ΔIOP (mmHg) [1, 7] [mmHg] | ΔIOP (mmHg) [1, 8] [mmHg] | EC50 [2] [nM] | further results
CCN(CC)CCNC(=O)CCc1cccc(CSc2nc(N)c(C#N)c(-c3ccc(NC(C)=O)cc3)n2)n1.Cl [Example 66, 3-{6-[4-(4-acetylaminophenyl)-6-amino-5-cyanopyrimidin-2-ylsulfanylmethyl]pyridin-2-yl}-N-(2-diethylaminoethyl)propionamide hydrochloride salt] | −1.3 ± 0.9 | −4.0 ± 0.6 | −5.5 ± 0.7 | −5.0 ± 0.5 | −3.7 ± 0.5 | −1.8 ± 0.5 | 5.2 | 
CCN1CCN(CC2CN(C(=O)CCc3cccc(CSc4nc(N)c(C#N)c(-c5ccc(NC(C)=O)cc5)n4)n3)CCO2)CC1.Cl (stereo not shown) [Example 72, N-{4-[6-amino-5-cyano-2-(6-{3-[2-(4-ethyl-piperazin-1-ylmethyl)morpholin-4-yl]-3-oxopropyl}pyridin-2-ylmethylsulfanyl)pyrimidin-4-yl]phenyl}acetamide hydrochloride] | −1.9 ± 0.6 | −5.3 ± 0.6 | −4.7 ± 0.6 | −5.0 ± 0.7 | −4.0 ± 1.0 | −1.9 ± 0.9 | 13.6 | 
CC(=O)Nc1ccc(-c2nc(SCc3cccc(CN4CCOCC4)n3)nc(N)c2C#N)cc1 [Example 14, N-{4-[6-amino-5-cyano-2-(6-morpholin-4-ylmethylpyridin-2-ylmethylsulfanyl)pyrimidin-4-yl]phenyl}acetamide] |  |  |  |  |  |  | 39.6 | ΔIOP (mmHg) ([1]; 0.3% suspended ophthalmic preparation, test group, 0.5 hr): −0.3 ± 1.2 mmHg; ΔIOP (mmHg) ([1]; 0.3% suspended ophthalmic preparation, test group, 1 hr): −3.9 ± 1.3 mmHg; ΔIOP (mmHg) ([1]; 0.3% suspended ophthalmic preparation, test group, 2 hr): −4.4 ± 1.0 mmHg; ΔIOP (mmHg) ([1]; 0.3% suspended ophthalmic preparation, test group, 3 hr): −4.8 ± 1.4 mmHg; ΔIOP (mmHg) ([1]; 0.3% suspended ophthalmic preparation, test group, 4 hr): −4.3 ± 1.0 mmHg; ΔIOP (mmHg) ([1]; 0.3% suspended ophthalmic preparation, test group, 6 hr): −1.0 ± 1.0 mmHg
CC(=O)Nc1ccc(-c2nc(SCc3cccc(CCC(=O)N(C)CC(C)N(C)C)n3)nc(N)c2C#N)cc1.Cl (stereo not shown) [Example 64, 3-{6-[4-(4-acetylaminophenyl)-6-amino-5-cyanopyrimidin-2-ylsulfanylmethyl]pyridin-2-yl}-N-(2-dimethylaminopropyl)-N-methylpropionamide hydrochloride] | −2.7 ± 0.7 | −4.9 ± 0.5 | −3.8 ± 0.8 | −3.2 ± 0.9 | −4.0 ± 0.7 | −1.8 ± 0.4 | 4.3 | 
CC(=O)Nc1ccc(-c2nc(SCc3cccc(CCC(=O)N4CCCN(C)CC4)n3)nc(N)c2C#N)cc1.Cl [Example 80, N-[4-(6-amino-5-cyano-2-{6-[3-(4-methyl-[1,4]diazepan-1-yl)-3-oxopropyl]pyridin-2-ylmethyl-sulfanyl}pyrimidin-4-yl)phenyl]acetamide hydrochloride] | −0.9 ± 1.3 | −5.0 ± 1.0 | −5.9 ± 0.7 | −4.9 ± 0.5 | −5.0 ± 0.8 | −1.8 ± 0.8 | 2.4 | 
CC(=O)Nc1ccc(-c2nc(SCc3cccc(CCC(=O)NCCN)n3)nc(N)c2C#N)cc1 [Example 60, 3-{6-[4-(4-acetylaminophenyl)-6-amino-5-cyanopyrimidin-2-ylsulfanylmethyl]pyridin-2-yl}-N-(2-aminoethyl)propionamide hydrochloride] |  |  |  |  |  |  | 2.8 | 
CCCC(=O)Nc1ccc(-c2nc(SCc3cccc(CCC(=O)N4CCN(C)CC4)n3)nc(N)c2C#N)cc1 [Example 58, N-[4-(6-amino-5-cyano-2-{6-[3-(4-methylpiperazin-1-yl)-3-oxopropyl]pyridin-2-ylmethylsulfanyl}pyrimidin-4-yl)phenyl]-butylamide] |  |  |  |  |  |  | 38 | 
CC(=O)Nc1ccc(-c2nc(SCc3cccc(CCC(=O)OC(C)(C)C)n3)nc(N)c2C#N)cc1 [Example 42, t-butyl 3-{6-[4-(4-acetylaminophenyl)-6-amino-5-cyanopyrimidin-2-ylsulfanyl-methyl]pyridin-2-yl}propionate] |  |  |  |  |  |  | 10 | 
CC(=O)Nc1ccc(-c2nc(SCc3cccc(CCC(=O)N4CCNCC4)n3)nc(N)c2C#N)cc1 [Example 74, N-(4-{6-amino-5-cyano-2-[6-(3-oxo-3-piperazin-1-ylpropyl)pyridin-2-ylmethylsulfanyl]-pyrimidin-4-yl}phenyl)acetamide hydrochloride] |  |  |  |  |  |  | 2.5 | 
COC(=O)Nc1ccc(-c2nc(SCc3cccc(C)n3)nc(N)c2C#N)cc1 [Example 13, methyl {4-[6-amino-5-cyano-2-(6-methylpyridin-2-ylmethylsulfanyl)pyrimidin-4-yl]phenyl}-carbamate] |  |  |  |  |  |  | 13.5 | 
CCN(CC)C1CCN(C(=O)CCc2cccc(CSc3nc(N)c(C#N)c(-c4ccc(NC(C)=O)cc4)n3)n2)CC1 [Example 68, N-[4-(6-amino-5-cyano-2-{6-[3-(4-diethylaminopiperidin-1-yl)-3-oxopropyl]pyridin-2-yl-methylsulfanyl}pyrimidin-4-yl)phenyl]acetamide hydrochloride salt] |  |  |  |  |  |  | 7.5 | 
CC(=O)Nc1ccc(-c2nc(SCc3cccc(CN4CCN(C(=O)CN5CCN(C)CC5)CC4)n3)nc(N)c2C#N)cc1 [Example 21, N-{4-[6-amino-5-cyano-2-(6-{4-[2-(4-methylpiperazin-1-yl)acetyl]piperazin-1-ylmethyl}pyridin-2-ylmethylsulfanyl)pyrimidin-4-yl]phenyl}acetamide hydrochloride] |  |  |  |  |  |  | 10.6 | 
CCCS(=O)(=O)N(C)Cc1cccc(CSc2nc(N)c(C#N)c(-c3ccc(NC(C)=O)cc3)n2)n1 [Example 41, N-{4-[6-amino-5-cyano-2-(6-{[methyl(propan-1-sulfonyl)amino]methyl}-pyridin-2-ylmethylsulfanyl)pyrimidin-4-yl]phenyl}acetamide] |  |  |  |  |  |  | 23 | 
